# The source made the active and inactive calls. No cut-off for these calls is given here.
# Columns and labels:
# HeLa [1] = test: Cytotoxicity against human HeLa cells assessed as inhibition of cell growth pre-treated with compound for 3 hrs followed by 620/25 nm red light irradiation for 30 mins measured after 72 hrs by CCK-8 assay; type: functional, cell-based; details: for IC50: light or radiation study
# [2] = Photoactivation of the compound assessed as photocleavage in the absence of 620/25 nm red light irradiation measured after 2 hrs by LC-MS analysis
# HeLa [3] = test: Cytotoxicity against human HeLa cells assessed as inhibition of cell growth pre-treated with compound for 3 hrs measured after 72 hrs in dark condition by CCK-8 assay; type: functional, cell-based; details: time 75.0 hrs
# [4] = Photoactivation of the compound assessed as photocleavage in the presence of 620/25 nm red light irradiation measured after 30 mins by LC-MS analysis; details: 0.5 h
# [5] = Photoactivation of the compound assessed as photocleavage in the presence of 520/25 nm green light irradiation by LC-MS analysis
# [6] = Photoactivation of the compound assessed as photocleavage in the presence of 620/25 nm red light irradiation by LC-MS analysis
# [7] = Photoactivation of the compound assessed as photocleavage in the presence of 620/25 nm red light irradiation measured after 2 hrs by LC-MS analysis
Compound,IC50 (HeLa [1]),Drug metabolism [2],Activity (HeLa [3]),Drug metabolism [4],Drug metabolism [5],Drug metabolism (HeLa [1]; time 75.5 hrs),Drug metabolism [6],Drug metabolism [7]
CC(=O)O[C@H]1C(=O)[C@@]2(C)[C@H]([C@H](OC(=O)c3ccccc3)[C@]3(O)C[C@H](OC(=O)[C@H](O)[C@@H](NC(=O)c4ccccc4)c4ccccc4)C(C)=C1C3(C)C)[C@]1(OC(C)=O)CO[C@@H]1C[C@@H]2O [PACLITAXEL],13.2 nM,,,,,,,
CC(=O)O[C@H]1C(=O)[C@@]2(C)[C@H]([C@H](OC(=O)c3ccccc3)[C@]3(O)C[C@H](OC(=O)[C@H](OC(=O)/C=C/N4CCC(COC(=O)CN5C(=S)c6cc7ccc(N(C)C)cc7cc6C5=S)CC4)[C@@H](NC(=O)c4ccccc4)c4ccccc4)C(C)=C1C3(C)C)[C@]1(OC(C)=O)CO[C@@H]1C[C@@H]2O,7.2 nM,Metabolite_Notdetected,inactive,80%,Metabolite_Detected,,,
CC(=O)O[C@H]1C(=O)[C@@]2(C)[C@H]([C@H](OC(=O)c3ccccc3)[C@]3(O)C[C@H](OC(=O)[C@H](OC(=O)/C=C/N4CCC(COC(=O)CN5C(=O)c6cc7ccc(N(C)C)cc7cc6C5=O)CC4)[C@@H](NC(=O)c4ccccc4)c4ccccc4)C(C)=C1C3(C)C)[C@]1(OC(C)=O)CO[C@@H]1C[C@@H]2O,,,,,,Metabolite not detected,Metabolite_Notdetected,
COc1ccc(/C=C\c2cc(OC)c(OC)c(OC)c2)cc1OC(=O)/C=C/N1CCC(COC(=O)CN2C(=S)c3cc4ccc(N(C)C)cc4cc3C2=S)CC1,14.5 nM,Metabolite_Notdetected,,50%,,,,< 20%
CCc1c2c(nc3ccc(OC(=O)/C=C/N4CCC(COC(=O)CN5C(=S)c6cc7ccc(N(C)C)cc7cc6C5=S)CC4)cc13)-c1cc3c(c(=O)n1C2)COC(=O)[C@]3(O)CC,84 nM,Metabolite_Notdetected,,50%,,,,< 20%

# From ChEMBL document CHEMBL5321251, “Visible light-activated prodrug system with a novel heavy-atom-free photosensitizer” (Bioorg Med Chem Lett, 2023)
